Reference: patent publication US6605625B2, “Ortho, meta-substituted bisaryl compounds, processes for their preparation, their use as medicaments, and pharmaceutical preparations comprising them” (Aventis Pharma Deutschland GmbH, priority 2000, dated 2003)

Molecular target: T1, Kv1.5 channels from humans (Homo sapiens, UniProt P22460)
T1 construct: expressed in transfected cells; host or cells: Xenopus laevis oocytes injected with in vitro synthesized RNA
Assay: Kv1.5 currents in Xenopus oocytes, 2-microelectrode voltage clamp
Type: cell-based
Conditions: human Kv1.5 expressed in Xenopus laevis oocytes; voltage jumps to 0 mV and 40 mV, 500 ms; room temperature; inhibition of Kv1.5 control current, Hill equation
Protocol: Kv1.5 channels from humans were expressed in Xenopus oocytes. To this end, oocytes from Xenopus laevis were first isolated and defolliculated. RNA coding for Kv1.5 synthesized in vitro was then injected into these oocytes. After a Kv1.5 protein expression for 1-7 days, Kv1.5 currents were measured on the oocytes using the 2-microelectrode voltage clamp technique. The Kv1.5 channels were in this case as a rule activated using voltage jumps to 0 mV and 40 mV lasting 500 ms. The bath was rinsed using a solution of the following composition: NaCl 96 mM, KCl 2 mM, CaCl2 1.8 mM, MgCl2 1 mM, HEPES 5 mM (titrated with NaOH to pH 7.4). These experiments were carried out at room temperature. The following were employed for data acquisition and analysis: Gene clamp amplifier (Axon Instruments, Foster City, USA) and MacLab D/A converter and software (ADInstruments, Castle Hill, Australia). The substances according to the invention were tested by adding them to the bath solution in different concentrations. The effects of the substances were calculated as the percentage inhibition of the Kv1.5 control current which was obtained when no substance was added to the solution. The data were then extrapolated using the Hill equation in order to determine the inhibition concentrations IC50 for the respective substances.

T1 sequence (P22460 whole entry): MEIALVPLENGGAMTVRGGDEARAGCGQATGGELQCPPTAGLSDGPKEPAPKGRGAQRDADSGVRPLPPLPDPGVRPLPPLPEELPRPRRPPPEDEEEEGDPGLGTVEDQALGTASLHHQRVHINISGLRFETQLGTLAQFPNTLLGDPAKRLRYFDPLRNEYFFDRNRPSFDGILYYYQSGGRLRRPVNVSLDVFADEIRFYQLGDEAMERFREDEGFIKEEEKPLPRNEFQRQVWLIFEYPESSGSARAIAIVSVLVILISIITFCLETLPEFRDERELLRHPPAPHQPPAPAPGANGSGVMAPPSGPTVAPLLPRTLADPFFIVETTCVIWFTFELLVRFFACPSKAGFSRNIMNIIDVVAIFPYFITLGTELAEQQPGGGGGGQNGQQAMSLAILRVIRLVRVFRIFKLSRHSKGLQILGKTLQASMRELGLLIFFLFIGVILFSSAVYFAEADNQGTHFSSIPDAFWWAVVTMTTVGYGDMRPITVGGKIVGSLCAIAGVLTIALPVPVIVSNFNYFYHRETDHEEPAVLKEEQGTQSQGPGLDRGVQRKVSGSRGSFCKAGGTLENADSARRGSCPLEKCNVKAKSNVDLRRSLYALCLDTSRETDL

SMILES	IC50 [µM]
CC(C)(C)OC(=O)NCc1ccccc1-c1cccc(C(=O)NCc2ccc(F)cc2F)c1 [Example 2]	< 100
CC(C)(C)OC(=O)NCc1ccccc1-c1ccc(Cl)c(C(=O)NCc2ccc(F)cc2F)c1 [Example 3]	< 100
CC(C)(C)OC(=O)NCc1ccccc1-c1cccc(C(=O)NCc2ccc(F)cc2F)n1 [Example 6]	< 100
CC(C)CCNC(=O)c1cncc(-c2ccccc2CNC(=O)OC(C)(C)C)c1 [Example 7]	< 100
CC(C)(C)OC(=O)NCc1ccccc1-c1cncc(C(=O)NCc2ccc(F)cc2F)c1 [Example 8]	< 100
CC(C)C[C@H](NC(=O)c1cccc(-c2ccccc2CNC(=O)OC(C)(C)C)n1)C(N)=O [Example 10]	< 100
CC(C)(C)OC(=O)NCc1ccccc1-c1cccc(C(=O)NCCc2ccccn2)n1 [Example 11]	10
CC(C)CCNC(=O)c1cccc(-c2ccccc2CNC(=O)OCc2ccccc2)c1 [Example 14]	< 100
O=C(NCc1ccccc1-c1cccc(C(=O)NCc2ccc(F)cc2F)c1)OCc1ccccc1 [Example 15]	< 100
O=C(NCc1ccccc1-c1cccc(C(=O)NCc2ccc(F)cc2F)n1)OCc1ccccc1 [Example 16]	< 100
CC(C)CCNC(=O)c1cccc(-c2ccccc2CNC(=O)OCc2ccccc2)n1 [Example 17]	< 100
COc1ccc(CC(=O)NCc2ccccc2-c2cccc(C(=O)Nc3ccc(OC)cc3)n2)cc1 [Example 20, 6-(2-{[2-(4-Methoxyphenyl)acetylamino]methyl}phenyl)pyridine-2-carboxylic acid (4-methoxyphenyl)amide]	< 100
COc1ccc(CC(=O)NCc2ccccc2-c2cccc(C(=O)NCCc3ccccn3)n2)cc1 [Example 22]	< 100
COc1ccc(CCC(=O)NCc2ccccc2-c2cccc(C(=O)Nc3ccc(OC)cc3)n2)cc1 [Example 23]	< 100
CCOc1ccc(C(=O)NCc2ccccc2-c2cccc(C(=O)Nc3ccc(OC)cc3)n2)cc1 [Example 24]	< 100
COc1ccc(CC(=O)NCc2ccccc2-c2cncc(C(=O)NCc3ccc(F)cc3F)c2)cc1 [Example 26]	7.4

The remaining lines, values ahead:

IC50 [µM]	SMILES
6.1	Cc1ccc(C(=O)NCCC(C)C)cc1-c1ccccc1CNC(=O)OC(C)(C)C [Example 4]
6	CC(C)CCNC(=O)c1cccc(-c2ccccc2CNC(=O)OC(C)(C)C)n1 [Example 5]
3	COc1ccc(NC(=O)c2cccc(-c3ccccc3CNC(=O)OC(C)(C)C)n2)cc1 [Example 9]
2.2	C[C@H](OC(=O)NCc1ccccc1-c1cccc(C(=O)NCCc2ccccn2)n1)c1ccccc1 [Example 12, (S)-1-(Phenylethyl) {2-[6-(2-pyridin-2-ylethylcarbamoyl)pyridin-2-yl]benzyl}carbamate]
7	Cc1ccc(C(=O)NCCC(C)C)cc1-c1ccccc1CNC(=O)OCc1ccccc1 [Example 13]
4.2	CC(C)C[C@H](NC(=O)c1cccc(-c2ccccc2CNC(=O)O[C@@H](C)c2ccccc2)n1)C(N)=O [Example 18]
2	COc1ccc(NC(=O)c2cccc(-c3ccccc3CNC(=O)O[C@@H](C)c3ccccc3)n2)cc1 [Example 19]
5.7	COc1ccc(CC(=O)NCc2ccccc2-c2cccc(C(=O)NCc3ccc(F)cc3F)n2)cc1 [Example 21]
6	COc1ccc(CC(=O)NCc2ccccc2-c2cccc(C(=O)NCc3ccc(F)cc3F)c2)cc1 [Example 27]
4.2	COc1ccc(CC(=O)NCc2ccccc2-c2cccc(C(=O)NCCC(C)C)c2)cc1 [Example 28]
4	COc1ccc(CC(=O)NCc2ccccc2-c2cc(C(=O)NCCC(C)C)ccc2C)cc1 [Example 29]
3.1	COc1ccc(CCC(=O)NCc2ccccc2-c2cc(C(=O)NCCC(C)C)ccc2C)cc1 [Example 30]
